# Source: ChEMBL document CHEMBL1201862, “PubChem BioAssay data set” (2004)
# Activity calls are given as the source filed them.
# Key:
# [1] = molecular target: T1, Neuropeptides B/W receptor type 1 (Homo sapiens, UniProt P48145); assay: GPR7 antagonist potency, late-stage follow-up, cell-based, fluorescence, dose response, set 6 (AID 588583); type: functional
# T1 sequence (P48145 whole entry): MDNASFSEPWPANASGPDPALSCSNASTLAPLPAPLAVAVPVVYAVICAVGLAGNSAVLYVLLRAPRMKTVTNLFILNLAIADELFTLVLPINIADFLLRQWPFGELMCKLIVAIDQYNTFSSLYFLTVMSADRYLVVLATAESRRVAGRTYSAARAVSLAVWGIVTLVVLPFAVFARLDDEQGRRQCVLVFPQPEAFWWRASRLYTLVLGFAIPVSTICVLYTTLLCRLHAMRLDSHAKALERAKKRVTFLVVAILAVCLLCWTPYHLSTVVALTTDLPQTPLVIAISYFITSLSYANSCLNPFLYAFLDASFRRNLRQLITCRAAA
# [2] = molecular target: Melanin-concentrating hormone receptor 1 (Homo sapiens, UniProt Q99705); assay: Late-stage fluorescence-based counterscreen for antagonists of the G-protein coupled receptor 7 (GPR7): cell-based dose response assay to identify antagonists of the melanin-concentrating hormone receptor 1 (MCHR1) Set 6.; type: functional
# [3] = molecular target: Platelet-activating factor acetylhydrolase (Mus musculus, UniProt Q60963); assay: Late stage assay provider results from the probe development effort to identify inhibitors of pPAFAH: fluorescence-based dose-response biochemical gel-based competitive Activity-Based Protein Profiling (ABPP) assay for SAR compounds.; type: functional
# Interleukin-8 = Interleukin-8 (Homo sapiens, UniProt P10145); assay: Dose Response confirmation of uHTS small molecule hits for cystic fibrosis induced NFkb Inhibitors in a PAF-induced IL8 counterscreen.; type: functional; details: read-out: IC50_Mean
# [4] = molecular target: Mitochondrial peptide methionine sulfoxide reductase (Bos taurus, UniProt P54149); type: functional;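 further: absorbance read-out, biochemical high-throughput dose-response screen for MsrA inhibitors, confirmatory; recombinant bovine MsrA coupled to E. coli TrxB with NADPH and selenocystamine; potency is for inhibitors of MsrA activity on DMSO substrate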
# Protein RecA = molecular target: T2, Protein RecA (Mycobacterium tuberculosis, UniProt P9WHJ3); assay: Fluorescence Cell-Free Homogeneous Dose Retest to Identify Inhibitors of RecA-Intein Splicing Activity. [Related pubchem assays (depositor defined):AID2097, AID2223, AID489010, AID492950]; type: functional
# T2 sequence (P9WHJ3 whole entry): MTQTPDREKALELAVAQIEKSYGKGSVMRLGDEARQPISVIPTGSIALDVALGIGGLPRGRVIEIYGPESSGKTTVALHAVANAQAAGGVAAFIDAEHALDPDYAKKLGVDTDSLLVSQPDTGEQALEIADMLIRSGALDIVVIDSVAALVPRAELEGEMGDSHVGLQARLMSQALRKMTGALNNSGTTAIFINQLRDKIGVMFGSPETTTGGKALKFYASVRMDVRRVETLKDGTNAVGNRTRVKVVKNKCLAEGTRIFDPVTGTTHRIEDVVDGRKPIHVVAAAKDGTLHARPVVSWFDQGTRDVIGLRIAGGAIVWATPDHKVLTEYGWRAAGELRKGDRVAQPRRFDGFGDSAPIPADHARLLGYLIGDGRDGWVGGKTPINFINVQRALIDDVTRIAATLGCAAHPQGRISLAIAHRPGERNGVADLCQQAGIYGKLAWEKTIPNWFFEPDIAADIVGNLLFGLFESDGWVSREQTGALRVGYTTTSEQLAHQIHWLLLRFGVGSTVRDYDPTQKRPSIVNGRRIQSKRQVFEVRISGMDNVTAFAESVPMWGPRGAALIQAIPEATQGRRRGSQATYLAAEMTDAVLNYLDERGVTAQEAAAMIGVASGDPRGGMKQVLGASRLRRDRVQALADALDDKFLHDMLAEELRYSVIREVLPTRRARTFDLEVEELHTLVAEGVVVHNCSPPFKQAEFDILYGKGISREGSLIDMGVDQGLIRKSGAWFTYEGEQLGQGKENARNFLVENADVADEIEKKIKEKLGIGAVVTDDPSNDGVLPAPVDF
# [5] = molecular target: Induced myeloid leukemia cell differentiation protein Mcl-1 (Homo sapiens, UniProt Q07820); type: functional
# [6] = molecular target: T3, Replicative DNA helicase DnaB (Mycobacterium tuberculosis, UniProt P9WMR3); assay: DnaB intein splicing inhibitors, dose response, biochemical, cell-free fluorescence (AID 449749); type: functional
# T3 sequence (P9WMR3 whole entry): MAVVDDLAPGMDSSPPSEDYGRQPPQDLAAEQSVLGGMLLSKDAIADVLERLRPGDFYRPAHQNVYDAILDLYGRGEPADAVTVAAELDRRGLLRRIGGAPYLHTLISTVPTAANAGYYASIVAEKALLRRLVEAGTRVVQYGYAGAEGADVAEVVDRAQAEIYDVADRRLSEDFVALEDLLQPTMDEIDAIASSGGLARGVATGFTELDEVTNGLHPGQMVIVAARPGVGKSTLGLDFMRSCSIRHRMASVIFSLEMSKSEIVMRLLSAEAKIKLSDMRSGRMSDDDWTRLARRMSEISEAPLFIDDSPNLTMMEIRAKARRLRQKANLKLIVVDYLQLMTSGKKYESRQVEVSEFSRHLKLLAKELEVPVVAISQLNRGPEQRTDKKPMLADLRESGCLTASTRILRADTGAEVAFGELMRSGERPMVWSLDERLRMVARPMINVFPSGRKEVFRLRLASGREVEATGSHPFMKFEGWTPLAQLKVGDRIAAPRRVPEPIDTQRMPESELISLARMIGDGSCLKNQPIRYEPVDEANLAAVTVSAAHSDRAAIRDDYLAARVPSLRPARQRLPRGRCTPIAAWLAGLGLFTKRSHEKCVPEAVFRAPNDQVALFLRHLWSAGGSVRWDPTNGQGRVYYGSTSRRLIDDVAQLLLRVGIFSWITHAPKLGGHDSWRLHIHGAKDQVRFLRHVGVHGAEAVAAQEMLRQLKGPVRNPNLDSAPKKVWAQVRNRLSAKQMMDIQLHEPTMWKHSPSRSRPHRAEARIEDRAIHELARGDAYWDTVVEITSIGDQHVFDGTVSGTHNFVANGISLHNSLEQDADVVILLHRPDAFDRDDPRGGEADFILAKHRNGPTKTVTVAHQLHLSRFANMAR
# [7] = molecular target: T4, Small ubiquitin-related modifier 2 (Homo sapiens, UniProt P61956); assay: inhibitors of SUMO2 protein-protein interaction, dose response, selectivity assay for SUMO1 interaction inhibitor project, biochemical, FRET, human SUMO2, uHTS hits (AID 624384); type: functional; details: read-out: IC50_Mean
# [8] = molecular target: T4, Small ubiquitin-related modifier 2; assay: SUMO2–SIM peptide binding inhibitors, dose response, selectivity assay for SUMO1 interaction inhibitor project, biochemical, fluorescence polarization, uHTS hits (AID 624385); type: functional; details: read-out: IC50_Mean
# [9] = molecular target: T5, Small ubiquitin-related modifier 1 (Homo sapiens, UniProt P63165); assay: inhibitors of SUMO1 peptide binding, dose response, biochemical, fluorescence polarization, uHTS hits (AID 624382); type: functional; details: read-out: IC50_Mean
# [10] = molecular target: T5, Small ubiquitin-related modifier 1; assay: inhibitors of SUMO1 partner interactions, dose response, biochemical, FRET (AID 624383); type: functional; details: read-out: IC50_Mean
# [11] = molecular target: DNA (cytosine-5)-methyltransferase 1 (Homo sapiens, UniProt P26358); assay: DNMT1 methyltransferase inhibitors, confirmation, biochemical, fluorescent molecular beacon (AID 602386); type: functional
# [12] = molecular target: T6, Polyadenylate-binding protein 1 (Homo sapiens, UniProt P11940); assay: PABP1 MLLE–PAM2 interaction inhibitors, dose response, miRNA deadenylation inhibitor project, biochemical, fluorescence polarization, Cy5-PAM2 peptide, secondary (AID 602260); type: functional; details: read-out: IC50_Mean
# Cytochrome P450 3A4 = Cytochrome P450 3A4 (Homo sapiens, UniProt P08684); details: Potency;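 further: confirmatory qHTS run detecting inhibitors and substrates of CYP3A4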
# [13] = molecular target: T6, Polyadenylate-binding protein 1; assay: PABP1 MLLE–PAM2 binding inhibitor potency, dose response, biochemical, fluorescence polarization, FITC-PAM2 peptide (AID 602259); type: functional; details: read-out: IC50_Mean
# [14] = molecular target: SWI/SNF-related matrix-associated actin-dependent regulator of chromatin subfamily A member 2 (Homo sapiens, UniProt P51531); assay: Luminescence-based cell-based high throughput dose response assay to identify activators of the function of SWI/SNF related, matrix associated, actin dependent regulator of chromatin, subfamily a, member 2 (SMARCA2, BRM).; type: functional
# [15] = Counterscreen for activators of the function of SWI/SNF related, matrix associated, actin dependent regulator of chromatin, subfamily a, member 2 (SMARCA2, BRM): Luminescence-based cell-based high throughput dose response assay to identify non-selective compounds using the VP16 reporter assay.; type: functional
# T4 sequence (P61956 whole entry): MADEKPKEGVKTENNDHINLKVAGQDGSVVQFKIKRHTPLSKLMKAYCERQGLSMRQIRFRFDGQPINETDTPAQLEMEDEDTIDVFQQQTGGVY
# T6 sequence (P11940 whole entry): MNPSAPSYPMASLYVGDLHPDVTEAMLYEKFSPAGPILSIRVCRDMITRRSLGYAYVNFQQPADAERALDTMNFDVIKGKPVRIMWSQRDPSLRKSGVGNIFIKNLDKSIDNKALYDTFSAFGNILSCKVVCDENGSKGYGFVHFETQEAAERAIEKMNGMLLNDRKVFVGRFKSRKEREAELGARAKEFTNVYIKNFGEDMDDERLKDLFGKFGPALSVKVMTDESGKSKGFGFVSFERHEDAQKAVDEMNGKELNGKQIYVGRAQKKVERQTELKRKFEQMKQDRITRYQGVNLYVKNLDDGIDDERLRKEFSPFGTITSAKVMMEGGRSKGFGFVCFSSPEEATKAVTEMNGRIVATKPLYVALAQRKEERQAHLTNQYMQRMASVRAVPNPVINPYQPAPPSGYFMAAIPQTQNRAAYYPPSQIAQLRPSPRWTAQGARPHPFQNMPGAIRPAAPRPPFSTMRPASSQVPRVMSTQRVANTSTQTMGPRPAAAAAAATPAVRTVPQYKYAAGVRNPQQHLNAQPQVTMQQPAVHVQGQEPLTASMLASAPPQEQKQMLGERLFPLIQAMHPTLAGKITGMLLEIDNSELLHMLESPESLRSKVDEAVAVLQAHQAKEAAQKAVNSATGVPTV
# T5 sequence (P63165 whole entry): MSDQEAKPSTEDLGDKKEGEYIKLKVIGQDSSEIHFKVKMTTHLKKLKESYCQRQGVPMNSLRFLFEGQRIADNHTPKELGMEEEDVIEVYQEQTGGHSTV
# Sequence of SWI/SNF-related matrix-associated actin-dependent regulator of chromatin subfamily A member 2 (P51531 whole entry): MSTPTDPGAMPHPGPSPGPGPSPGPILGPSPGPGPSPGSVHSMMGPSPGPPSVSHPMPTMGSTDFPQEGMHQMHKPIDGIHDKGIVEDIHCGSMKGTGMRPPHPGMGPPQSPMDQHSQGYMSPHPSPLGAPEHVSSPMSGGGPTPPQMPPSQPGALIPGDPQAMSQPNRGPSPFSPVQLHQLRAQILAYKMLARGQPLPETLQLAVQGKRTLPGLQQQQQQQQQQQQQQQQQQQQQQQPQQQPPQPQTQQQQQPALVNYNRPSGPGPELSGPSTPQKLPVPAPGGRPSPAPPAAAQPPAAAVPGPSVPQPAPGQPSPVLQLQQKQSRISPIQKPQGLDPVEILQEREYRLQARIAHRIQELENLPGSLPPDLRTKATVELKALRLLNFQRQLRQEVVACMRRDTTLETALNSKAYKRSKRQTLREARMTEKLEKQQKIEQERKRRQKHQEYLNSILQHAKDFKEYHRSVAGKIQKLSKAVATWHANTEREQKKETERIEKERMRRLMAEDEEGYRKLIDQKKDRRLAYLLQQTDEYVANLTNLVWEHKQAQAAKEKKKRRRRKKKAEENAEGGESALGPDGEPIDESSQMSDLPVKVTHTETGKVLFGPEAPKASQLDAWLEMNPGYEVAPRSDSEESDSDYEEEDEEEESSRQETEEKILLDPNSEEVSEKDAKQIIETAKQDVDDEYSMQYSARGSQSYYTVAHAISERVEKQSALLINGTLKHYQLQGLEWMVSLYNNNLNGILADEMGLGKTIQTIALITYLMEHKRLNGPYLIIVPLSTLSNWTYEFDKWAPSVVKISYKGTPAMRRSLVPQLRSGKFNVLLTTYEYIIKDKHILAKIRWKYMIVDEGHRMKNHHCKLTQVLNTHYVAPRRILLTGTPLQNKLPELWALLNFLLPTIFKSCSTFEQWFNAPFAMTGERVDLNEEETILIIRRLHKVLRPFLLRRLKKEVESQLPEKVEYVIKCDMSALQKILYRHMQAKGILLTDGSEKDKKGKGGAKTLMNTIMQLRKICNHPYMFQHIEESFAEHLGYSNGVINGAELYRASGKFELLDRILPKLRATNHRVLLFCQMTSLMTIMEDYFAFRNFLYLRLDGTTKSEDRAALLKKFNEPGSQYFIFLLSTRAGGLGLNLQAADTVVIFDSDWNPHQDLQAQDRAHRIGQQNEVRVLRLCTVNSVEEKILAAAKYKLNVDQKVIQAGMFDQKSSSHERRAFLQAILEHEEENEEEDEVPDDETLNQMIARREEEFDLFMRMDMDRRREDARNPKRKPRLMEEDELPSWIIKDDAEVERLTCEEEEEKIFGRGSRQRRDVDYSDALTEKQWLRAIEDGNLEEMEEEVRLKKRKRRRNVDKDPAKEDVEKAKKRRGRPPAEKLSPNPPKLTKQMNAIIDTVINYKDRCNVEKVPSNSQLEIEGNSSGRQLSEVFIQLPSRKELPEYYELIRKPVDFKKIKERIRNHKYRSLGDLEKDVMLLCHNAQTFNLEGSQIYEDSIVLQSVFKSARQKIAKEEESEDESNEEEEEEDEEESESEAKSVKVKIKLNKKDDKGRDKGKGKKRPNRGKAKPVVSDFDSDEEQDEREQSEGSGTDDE
# Sequence of Mitochondrial peptide methionine sulfoxide reductase (P54149 whole entry): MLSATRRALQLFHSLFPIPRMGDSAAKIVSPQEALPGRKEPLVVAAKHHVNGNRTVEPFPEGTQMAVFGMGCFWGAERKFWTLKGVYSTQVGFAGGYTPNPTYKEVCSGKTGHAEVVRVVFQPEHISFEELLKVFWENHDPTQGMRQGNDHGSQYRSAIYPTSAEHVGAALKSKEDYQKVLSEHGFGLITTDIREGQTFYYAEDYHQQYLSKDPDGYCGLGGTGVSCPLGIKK
# Sequence of Cytochrome P450 3A4 (P08684 whole entry): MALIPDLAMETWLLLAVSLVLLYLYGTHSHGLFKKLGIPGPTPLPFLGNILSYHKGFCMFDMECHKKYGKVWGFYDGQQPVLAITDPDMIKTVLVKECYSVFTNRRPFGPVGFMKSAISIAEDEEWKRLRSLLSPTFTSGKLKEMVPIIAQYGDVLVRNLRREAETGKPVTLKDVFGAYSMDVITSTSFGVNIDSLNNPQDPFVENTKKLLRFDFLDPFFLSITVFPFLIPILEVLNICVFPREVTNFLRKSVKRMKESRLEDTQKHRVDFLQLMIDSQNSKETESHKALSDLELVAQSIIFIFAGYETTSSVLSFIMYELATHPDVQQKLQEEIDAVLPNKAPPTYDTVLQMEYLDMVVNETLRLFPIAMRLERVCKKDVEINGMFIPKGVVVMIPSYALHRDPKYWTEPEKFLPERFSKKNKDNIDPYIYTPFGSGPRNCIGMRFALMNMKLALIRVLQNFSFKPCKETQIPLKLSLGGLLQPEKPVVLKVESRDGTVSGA
# Sequence of DNA (cytosine-5)-methyltransferase 1 (P26358 whole entry): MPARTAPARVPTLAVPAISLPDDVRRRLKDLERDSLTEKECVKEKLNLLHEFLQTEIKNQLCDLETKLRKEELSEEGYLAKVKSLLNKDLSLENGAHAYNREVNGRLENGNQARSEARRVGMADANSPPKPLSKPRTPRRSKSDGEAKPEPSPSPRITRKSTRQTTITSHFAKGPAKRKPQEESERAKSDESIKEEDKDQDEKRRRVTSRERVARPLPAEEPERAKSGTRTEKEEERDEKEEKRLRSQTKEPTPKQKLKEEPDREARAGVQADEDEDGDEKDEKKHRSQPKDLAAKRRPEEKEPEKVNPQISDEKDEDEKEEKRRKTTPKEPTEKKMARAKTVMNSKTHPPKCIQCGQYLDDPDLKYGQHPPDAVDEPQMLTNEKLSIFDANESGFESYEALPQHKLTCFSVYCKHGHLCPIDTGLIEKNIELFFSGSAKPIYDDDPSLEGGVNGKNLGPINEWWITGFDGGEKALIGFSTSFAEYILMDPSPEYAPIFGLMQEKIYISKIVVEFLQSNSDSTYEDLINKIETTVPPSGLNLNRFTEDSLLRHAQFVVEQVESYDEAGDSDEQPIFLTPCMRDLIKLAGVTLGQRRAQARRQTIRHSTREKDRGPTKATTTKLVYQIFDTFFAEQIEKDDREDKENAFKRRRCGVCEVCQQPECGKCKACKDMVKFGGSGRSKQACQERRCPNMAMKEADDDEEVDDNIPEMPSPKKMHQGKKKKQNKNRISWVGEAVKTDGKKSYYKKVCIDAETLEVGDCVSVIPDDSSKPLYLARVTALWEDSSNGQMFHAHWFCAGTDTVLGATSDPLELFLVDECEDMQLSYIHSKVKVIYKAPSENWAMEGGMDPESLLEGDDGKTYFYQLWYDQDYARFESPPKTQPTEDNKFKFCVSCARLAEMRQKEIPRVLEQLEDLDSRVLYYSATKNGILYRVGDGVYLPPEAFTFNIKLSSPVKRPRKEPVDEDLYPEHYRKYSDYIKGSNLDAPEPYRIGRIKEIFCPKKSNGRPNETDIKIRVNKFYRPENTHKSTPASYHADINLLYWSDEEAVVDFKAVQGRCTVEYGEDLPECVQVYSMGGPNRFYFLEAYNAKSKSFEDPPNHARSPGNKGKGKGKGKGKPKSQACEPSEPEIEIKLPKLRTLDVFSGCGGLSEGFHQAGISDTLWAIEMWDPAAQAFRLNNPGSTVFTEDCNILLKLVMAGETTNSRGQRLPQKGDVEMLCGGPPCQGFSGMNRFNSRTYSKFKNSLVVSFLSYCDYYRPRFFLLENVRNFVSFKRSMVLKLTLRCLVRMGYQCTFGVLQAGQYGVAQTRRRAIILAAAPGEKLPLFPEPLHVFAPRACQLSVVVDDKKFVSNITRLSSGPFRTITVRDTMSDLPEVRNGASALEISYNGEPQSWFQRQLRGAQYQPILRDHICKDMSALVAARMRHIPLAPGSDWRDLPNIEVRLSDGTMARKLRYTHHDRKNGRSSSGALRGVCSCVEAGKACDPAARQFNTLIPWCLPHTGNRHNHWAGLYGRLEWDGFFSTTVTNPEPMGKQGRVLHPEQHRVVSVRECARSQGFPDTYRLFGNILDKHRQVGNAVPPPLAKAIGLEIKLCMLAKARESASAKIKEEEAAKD
# Sequence of Interleukin-8 (P10145 whole entry): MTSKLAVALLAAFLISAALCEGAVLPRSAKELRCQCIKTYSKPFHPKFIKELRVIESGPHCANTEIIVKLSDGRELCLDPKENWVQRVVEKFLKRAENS
structure (smiles),measurement,setting,value
N#CC(C#N)c1c(Cl)cnn(Cc2cccc3ccccc23)c1=O,IC50,[1],17.4 µM (inactive)
same,IC50,[2],17.4 µM (inactive)
Cc1cc(N2CCN(C(=O)Oc3ccc(-n4cccc4)cc3)CC2)c2ccccc2n1,IC50,[3],0.057 µM (active)
NC(=O)c1cc2ccc(O)cc2o/c1=N\c1ccccc1,IC50,Interleukin-8,6.71 µM (active)
C/C(=N\Nc1ccc(S(N)(=O)=O)cc1[N+](=O)[O-])c1cccnc1,IC50,[4],155 µM (inactive)
NC1=C2C(=O)c3ccccc3C(=O)C2=C(N)CC1,EC50,Protein RecA,3.57 µM (active)
same,IC50,[5],1.8 µM (not active)
same,AC50,[6],11.3 µM (active)
same,IC50,[7],> 66 µM (inactive)
same,IC50,[8],10.5 µM (active)
same,IC50,[9],7.71 µM (active)
same,IC50,[10],52.4 µM (inactive)
O=C1c2ccccc2-c2cccc3cccc1c23 [BENZANTHRONE],IC50,[11],41 µM (active)
same,IC50,[12],> 66 µM (inactive)
same,AC50,Cytochrome P450 3A4,39.8 µM (inconclusive)
same,IC50,[13],34 µM (inactive)
same,EC50,[14],> 91.2 µM (inactive)
same,EC50,[15],> 91.2 µM (inactive)
